Experimental data reported in patent US20080146555A1, “Uses of Kinase Inhibitors and Compositions Thereof” (GPC Biotech, Inc, priority 2004, published 2008).
Counter-ions that a name gives are not always drawn. Like-named read-outs stand apart in the source and are kept apart here.

How the values were obtained:
[1] = biological target: Cdk5 (Homo sapiens, UniProt Q00535); assay: Cdk5 inhibition; type: biochemical
Excerpt: Further inhibition results for subject compounds of the invention against other CDKs and further kinases are shown in Table 5, Table II and described in Example 6.
Table 3, Table 4, Table 5 and Table II show the results obtained for inhibition of a broad range of such kinases for subject compounds of the invention.

[2] = biological target: T1, JNK2α2 (Homo sapiens, UniProt P45984); assay: JNK2α2 kinase assay; type: biochemical
T1 construct: purchased Upstate 14-329
T1 sequence (P45984 whole entry): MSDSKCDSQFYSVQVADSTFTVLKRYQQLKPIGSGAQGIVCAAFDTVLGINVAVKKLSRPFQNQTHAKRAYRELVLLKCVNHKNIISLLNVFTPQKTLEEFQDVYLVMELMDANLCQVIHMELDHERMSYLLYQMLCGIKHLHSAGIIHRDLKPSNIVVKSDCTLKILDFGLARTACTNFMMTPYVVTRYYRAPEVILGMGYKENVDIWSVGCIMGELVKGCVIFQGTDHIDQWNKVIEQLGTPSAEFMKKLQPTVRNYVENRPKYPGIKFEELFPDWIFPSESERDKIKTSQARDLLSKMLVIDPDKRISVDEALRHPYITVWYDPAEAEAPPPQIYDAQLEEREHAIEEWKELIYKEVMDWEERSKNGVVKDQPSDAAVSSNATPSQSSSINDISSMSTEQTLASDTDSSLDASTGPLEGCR
Protocol: • 1. 10× Reaction Buffer: 500 mM Tris-HCl, pH 7.5, 1 mM EGTA, 1% 2-mercaptoethanol. • 2. ATF2 (amino acids 19-69) (Catalog #12-367): Prepare a 30 μM stock. Use 2.5 μl per assay point for a final concentration of 3 μM per assay. • 3. JNK2α2/SAPK1a, active: Dilute to 4-40 ng/μl with 1× Reaction Buffer containing 0.03% Brij-35. Use 2.5 μl per assay point. • 4. […] [γ-^32P]ATP: Stock 1 mCi/100 μl (3000 Ci/mmol, obtained from PerkinElmer, Catalog #BLU002A). Make 10 μl aliquots (100 μCi/vial). Before starting the assay, dilute the Magnesium/ATP Cocktail 1:1 with sterile, distilled water. Then dilute an aliquot of [γ-^32P]ATP to 1 μCi/μl with 90 μl of the diluted Magnesium/ATP Cocktail. […]
• 1. Add 2.5 μl of 10× Reaction Buffer to a microcentrifuge tube. • 2. Add 2.5 μl […] of ATF2 (amino acids 19-69). • 3. Add 2.5 μl (10-100 ng) of JNK2α2/SAPK1a, active. • 4. Add 7.5 μl of sterile, distilled water. • 5. Add 10 μl of the diluted [γ-^32P]ATP solution. • 6. Incubate with agitation for 10 minutes at 30° C. • 7. Transfer a 20 μl aliquot onto the center of a 2 cm×2 cm P81 paper square (Catalog #20-134). • 8. Wash the paper squares three times with 0.75% phosphoric acid for 5 minutes. • 9. Wash the paper squares once for 5 minutes with acetone. • 10. Transfer the paper squares to a scintillation vial and add 5 ml scintillation cocktail. • 11. Read in scintillation counter. Compare the cpm of enzyme samples to the cpm of control samples that contain no enzyme (background control).

[3] = system: DNA replication; assay: Inhibition of DNA replication; type: cell-based; settings: 24 hour incubation
[4] = system: HT29/mit; assay: SRB cytotoxicity, mitoxanthrone resistant cells; type: cell-based, human
Protocol: In these experiments, the P-glycoprotein expressing NCI-Adr resistant subline (Vickers et al., 1989. Mol Endocrinology 3 (1):157-164) was used. […] Briefly, cells were plated in 96 well dishes 24 hours prior to compound addition. Where noted, they were exposed to verapamil for 4 hours prior to compound addition and then throughout the treatment period (72 hours). The assay was terminated with the addition of cold TCA to a final concentration of 10% and the plates were incubated for one hour at 4° C. The plates were then washed 5 times with water and 100 μl of a Sulforhodamine B solution (4%) was added to each well. The plate was then incubated for 10 minutes at room temperature before removal of unbound dye by washing with 1% acetic acid. The bound dye was solubilized with 10 mM Trizma base and the absorbance read at OD570.
The parental non-mutated cell line HT29 was used as a control.
Z. Cytotoxicity was measured using the SRB assay according to Shekan et al. as described above in Example 1A.

[5] = system: quiescent tumor cells; assay: Activity on quiescent tumor cells; type: cell-based
[6] = kinase panel, 10 μM ATP, read-out: JNK2α2 IC50
[7] = read-out: MAPK9 Inhibition (IC50)

Cdk5, sequence (Q00535 whole entry, species assumed): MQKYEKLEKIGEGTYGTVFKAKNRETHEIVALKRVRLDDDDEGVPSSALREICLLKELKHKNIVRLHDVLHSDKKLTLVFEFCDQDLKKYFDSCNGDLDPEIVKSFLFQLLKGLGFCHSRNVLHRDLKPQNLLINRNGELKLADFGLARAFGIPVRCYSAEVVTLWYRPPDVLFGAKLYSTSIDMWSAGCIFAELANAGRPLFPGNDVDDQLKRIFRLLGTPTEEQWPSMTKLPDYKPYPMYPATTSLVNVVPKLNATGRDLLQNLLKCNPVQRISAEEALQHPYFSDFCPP
Cdk5, sequence (Q15078 whole entry partner, species assumed): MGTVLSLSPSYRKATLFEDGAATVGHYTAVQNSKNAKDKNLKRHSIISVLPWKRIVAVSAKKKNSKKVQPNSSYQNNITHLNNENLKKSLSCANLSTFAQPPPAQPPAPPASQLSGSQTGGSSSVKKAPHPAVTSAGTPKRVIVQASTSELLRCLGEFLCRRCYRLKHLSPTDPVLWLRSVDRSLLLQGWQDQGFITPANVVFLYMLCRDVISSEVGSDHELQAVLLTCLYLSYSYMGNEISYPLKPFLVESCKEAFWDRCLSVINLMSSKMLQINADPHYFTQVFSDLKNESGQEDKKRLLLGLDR

Compound	IC50 [1] [nM]	IC50 [2, 6] [nM]	IC50 [2, 7] [nM]	IC50 [3] [nM]	RR (relative resistance) HT29/mit vs HT29 [4]	IC50 ([4]; Homo sapiens, HT-29, 72 h, SRB) [nM]	IC50 [5] [nM]
CC(C)N1CCN(C(=O)COc2ccc(-c3n[nH]c4c3C(=O)c3c(NC(=O)NN5CCOCC5)cccc3-4)cc2)CC1 [Compound A37]	< 5	10 to 100	< 50	16	–	–	–
COCCN1CCN(Cc2ccc(-c3n[nH]c4c3C(=O)c3c(NC(=O)NN5CCOCC5)cccc3-4)cc2)CC1 [Compound B16, N-[3-(4-{[4-(2-methoxyethyl)piperazinyl]methyl}phenyl)-4-oxoindeno[2,3-d]pyrazol-5-yl](morpholin-4-ylamino)carboxamide dihydrochloride]	< 5	< 100	< 100	10	22.1	1700	11
